Results from patent US20090305894A1, “use of sulfonanilides as herbicide” (priority 2005, published 2009).

Columns and labels:
Type in all cases: in vivo
[1] = system: Lindernia procumbens Philcox (resistant to sulfonylurea type herbicide); test: Herbicidal efficacy test to weeds resistant to sulfonylurea type herbicide (Test Example 1, applied on water surface, Table 8); conditions: 60 g ai/ha, applied on water surface at beginning of sprouting, rated after 3 weeks; 100% = complete withering, 0% = no effect
Description: (§1) Preparation of formulation of active compound
(§2) Carrier: DMF 5 parts by weight
(§3) Emulsifier: benzyloxypolyglycol ether 1 part by weight
(§4) The formulations of active compounds were obtained as emulsions by mixing 1 part by weight of the active compound with the carrier and emulsifier in the described amounts. The formulations were diluted with water so as to adjust a prescribed dosage.
(§5) In a greenhouse respective seeds of Scirpus juncoides Roxburgh (from Hokkaido, Japan) and Lindernia procumbens Philcox (from Saitama, Japan), which are confirmed to have resistance to a sulfonylurea type herbicide, were inoculated in pots filled with 500 cm^2 of paddy field soil and water was poured to the pot in about 2 to 3 cm depth. At the beginning of sprouting of the weeds, prescribed diluted solutions of the formulations of the respective active compounds obtained by the above-mentioned manner were applied on the water surface. After the treatment water depth of 3 cm was kept. The herbicidal effect was investigated after 3 weeks of the treatment. The herbicidal effect was rated as 100% in the case of complete withering and 0% in the case of no herbicidal effect. When the herbicidal effect was 80% or higher, the practical effectiveness as herbicides is recognized. As the representative examples, the test results of the compound Nos. 1, 3, 4, 5, 6, 7, 13, 70, 127, 128 and 130 are shown in Table 8.

[2] = system: Scirpus juncoides Roxburgh (resistant to sulfonylurea type herbicide); test: as above; conditions: 60 g ai/ha, applied on water surface at beginning of sprouting, rated after 3 weeks; 100% = complete withering, 0% = no effect
Description: as §1, §2, §3, §4, §5

[3] = system: paddy rice seedlings (cultivar: Nihonbare); test: Herbicide damage on transplanted paddy rice (Test Example 2, Table 9); conditions: 60 g ai/ha, applied to water surface 5 days after transplantation, rated after 3 weeks; 100% = complete withering, 0% = no damage
Description: as §4
In a greenhouse each three paddy rice seedlings (cultivar: Nihonbare) were transplanted (transplantation depth 2 cm) in each pot filled with 500 cm^2 of paddy field soil and covered with water in about 2 to 3 cm depth. After 5 days from the transplantation, prescribed diluted solutions of the formulations of the respective active compounds obtained in the same manner as in Test Example 1 were applied to the water surface of each pot. After the treatment, the water depth of 3 cm was kept. The herbicide damage was investigated after 3 weeks of the treatment. The herbicide damage was rated as 100% in the case of complete withering and 0% in the case of no herbicide damage. When the herbicide damage was 20% or lower, the safety as a paddy rice herbicide was evaluated to be excellent. As the representative examples, the test results of the compound Nos. 3, 4, 5, 6, 7, 70, 115, 127 and 128, and comparative compound C-2 are shown in Table 9.

[4] = system: rice (cultivar: Balilla); test: Irrigated directly seeded paddy rice, herbicide damage, spraying to soil before sprouting (Test Example 3, Table 10); conditions: 20 g ai/ha, rated after 3 weeks
Description: as §4
(§6) In a greenhouse seeds of rice (cultivar: Balilla) and weeds (Brachiaria plantaginea, Cyperus esculntus, Cyperus iria L., Echinochloa colonum, Leptochloa chinensis, Ipomoea purpurea, and Sesbania exaltata) were inoculated on the surface layers of pots filled with 100 cm^2 of paddy field soil and covered with soil. Water was poured to produce wet state (water level 0 cm). The prescribed diluted solutions of the formulations of the respective active compounds obtained in the same manner as in Test Example 1 were sprayed on the soil of some pots on completion of the seeding and the solutions of the agents were sprayed over the plants from the above in the rest of the pots after the respective sample plants were grown in first- to third-1 eaf stage in the greenhouse. After one day from the treatment with the compound, water was poured in 3 cm depth. The herbicidal effects and herbicide damage on rice of the respective compounds were investigated after 3 weeks from the treatment. The herbicidal effect and herbicide damage on the rice were rated as 100% in the case of complete withering and 0% in the case of no herbicidal effect or no harm. When herbicidal effect was 80% or higher, it was determined to be practically applicable as herbicides. When the herbicide damage was 20% or lower, the safety of the herbicide was evaluated to be excellent.

[5] = system: Brachiaria plantaginea; test: Irrigated directly seeded paddy rice, herbicidal effect, spraying to soil before sprouting (Test Example 3, Table 10); conditions: 20 g ai/ha, rated after 3 weeks
Description: as §4, §6

[6] = system: Cyperus esculntus; test: as above; conditions: 20 g ai/ha, rated after 3 weeks
Description: as §4, §6

[7] = system: Cyperus iria L.; test: as above; conditions: 20 g ai/ha, rated after 3 weeks
Description: as §4, §6

[8] = system: Echinochloa colonum; test: as above; conditions: 20 g ai/ha, rated after 3 weeks
Description: as §4, §6

[9] = system: Ipomoea purpurea; test: as above; conditions: 20 g ai/ha, rated after 3 weeks
Description: as §4, §6

[10] = system: Leptochloa chinensis; test: as above; conditions: 20 g ai/ha, rated after 3 weeks
Description: as §4, §6

[11] = system: Sesbania exaltata; test: as above; conditions: 20 g ai/ha, rated after 3 weeks
Description: as §4, §6

[12] = system: rice (cultivar: Balilla); test: Irrigated directly seeded paddy rice, herbicide damage, spraying to stems and leaves after sprouting (Test Example 3, Table 11); conditions: 20 g ai/ha, rated after 3 weeks
Description: as §4, §6

[13] = system: Brachiaria plantaginea; test: Irrigated directly seeded paddy rice, herbicidal effect, spraying to stems and leaves after sprouting (Test Example 3, Table 11); conditions: 20 g ai/ha, rated after 3 weeks
Description: as §4, §6

[14] = system: Cyperus esculntus; test: as above; conditions: 20 g ai/ha, rated after 3 weeks
Description: as §4, §6

[15] = system: Cyperus iria L.; test: as above; conditions: 20 g ai/ha, rated after 3 weeks
Description: as §4, §6

[16] = system: Echinochloa colonum; test: as above; conditions: 20 g ai/ha, rated after 3 weeks
Description: as §4, §6

[17] = system: Ipomoea purpurea; test: as above; conditions: 20 g ai/ha, rated after 3 weeks
Description: as §4, §6

[18] = system: Leptochloa chinensis; test: as above; conditions: 20 g ai/ha, rated after 3 weeks
Description: as §4, §6

[19] = system: Sesbania exaltata; test: as above; conditions: 20 g ai/ha, rated after 3 weeks
Description: as §4, §6

[20] = system: Glycine max; test: Herbicide damage to crops in dry field, spraying treatment on soil before sprouting (Test Example 4, Table 12); conditions: 80 g ai/ha, rated after 3 weeks
Description: as §4, §6
(§7) In a greenhouse one seed each of crops in dry field (Triticum aestivum and Glycine max) and weeds (Echinochloa crus-gali and Setaria vividis) were inoculated in the surface layer in one pot filled with 16 cm^2 of dry field soil and covered with soil. The prescribed diluted solutions of the formulations of the respective active compounds obtained in the same manner as in Test Example 1 were sprayed to the soil upon the inoculation. The herbicidal effect and herbicide damage on crops of the respective compounds were investigated after 3 weeks from the treatment. Evaluations of the herbicidal effect and herbicide damage were carried out in the same manner as in Test Example 3. As the representative example, the test results of compound No. 1 and 24, and the comparative compound C-1 are shown in Table 12.

[21] = system: Triticum aestivum; test: as above; conditions: 80 g ai/ha, rated after 3 weeks
Description: as §4, §6, §7

[22] = system: Echinochloa crus-gali; test: Herbicidal effect on weeds in dry field, spraying treatment on soil before sprouting (Test Example 4, Table 12); conditions: 80 g ai/ha, spraying to soil before sprouting, rated after 3 weeks
Description: as §4, §6, §7

[23] = system: Setaria vividis; test: as above; conditions: 80 g ai/ha, spraying to soil before sprouting, rated after 3 weeks
Description: as §4, §6, §7

COc1cc(OC)nc(C(O)c2c(F)ccc(F)c2NS(=O)(=O)C(F)F)n1 (stereo not drawn) [compound 7]
Herbicidal effect to sulfonylurea resistant weeds: Lindernia procumbens Philcox (from Saitama pref.) [1]: 100% | Herbicidal effect to sulfonylurea resistant weeds: Scirpus juncoides Roxburgh (from Hokkaido) [2]: 100% | Herbicide damage on transplanted paddy rice [3]: 10%

COc1cc(OC)nc(C(O)c2ccc(F)c(OC)c2NS(=O)(=O)C(F)F)n1 (stereo not drawn) [compound 127]
Herbicidal effect to sulfonylurea resistant weeds: Lindernia procumbens Philcox (from Saitama pref.) [1]: 90% | Herbicidal effect to sulfonylurea resistant weeds: Scirpus juncoides Roxburgh (from Hokkaido) [2]: 100% | Herbicide damage on transplanted paddy rice [3]: 0%

COC(=O)c1ccccc1CS(=O)(=O)NC(=O)Nc1nc(OC)cc(OC)n1 [C-4, Bensulfuron-methyl, reference compound]
Herbicidal effect to sulfonylurea resistant weeds: Lindernia procumbens Philcox (from Saitama pref.) [1]: 10% | Herbicidal effect to sulfonylurea resistant weeds: Scirpus juncoides Roxburgh (from Hokkaido) [2]: 10%

COc1cc(OC)nc(C(O)c2ccc(Cl)c(OC)c2NS(=O)(=O)C(F)F)n1 (stereo not drawn) [compound 128]
Herbicidal effect to sulfonylurea resistant weeds: Lindernia procumbens Philcox (from Saitama pref.) [1]: 100% | Herbicidal effect to sulfonylurea resistant weeds: Scirpus juncoides Roxburgh (from Hokkaido) [2]: 90% | Herbicide damage on transplanted paddy rice [3]: 0%

COc1nc(OC)nc(C(O)c2cccc(F)c2N(C)S(=O)(=O)C(F)F)n1 (stereo not drawn) [compound 9]
Herbicide damage on Rice [4]: 20% | Herbicidal effect Brachiaria plantaginea [5]: 70% | Herbicidal effect Cyperus esculntus [6]: 100% | Herbicidal effect Cyperusiria L. [7]: 100% | Herbicidal effect Echinochloa colonum [8]: 100% | Herbicidal effect Ipomoea purpurea [9]: 70% | Herbicidal effect Leptochloa chinensis [10]: 80% | Herbicidal effect Sesbania exaltata [11]: 100% | Herbicide damage on Rice [12]: 20% | Herbicidal effect Brachiaria plantaginea [13]: 100% | Herbicidal effect Cyperus esculntus [14]: 100% | Herbicidal effect Cyperusiria L. [15]: 100% | Herbicidal effect Echinochloa colonum [16]: 100% | Herbicidal effect Ipomoea purpurea [17]: 100% | Herbicidal effect Leptochloa chinensis [18]: 60% | Herbicidal effect Sesbania exaltata [19]: 100%

CCOc1ccccc1OS(=O)(=O)NC(=O)Nc1nc(OC)cc(OC)n1 [C-3, Ethoxysulfuron, reference compound]
Herbicidal effect to sulfonylurea resistant weeds: Lindernia procumbens Philcox (from Saitama pref.) [1]: 10% | Herbicidal effect to sulfonylurea resistant weeds: Scirpus juncoides Roxburgh (from Hokkaido) [2]: 10%

COCN(c1c(F)cccc1C(=O)c1nc(OC)nc(OC)n1)S(=O)(=O)C(F)F [compound 24]
Herbicide damage Glycine max [20]: 0% | Herbicide damage Triticum aestivum [21]: 0% | Herbicidal effect Echinochloa crus-gali [22]: 80% | Herbicidal effect Setaria vividis [23]: 90%

COc1nc(OC)nc(C(=O)c2cccc(Cl)c2N(C)S(=O)(=O)C(F)F)n1 [compound 2]
Herbicide damage on Rice [4]: 30% | Herbicidal effect Brachiaria plantaginea [5]: 80% | Herbicidal effect Cyperus esculntus [6]: 90% | Herbicidal effect Cyperusiria L. [7]: 100% | Herbicidal effect Echinochloa colonum [8]: 80% | Herbicidal effect Ipomoea purpurea [9]: 80% | Herbicidal effect Leptochloa chinensis [10]: 90% | Herbicidal effect Sesbania exaltata [11]: 80% | Herbicide damage on Rice [12]: 10% | Herbicidal effect Brachiaria plantaginea [13]: 100% | Herbicidal effect Cyperus esculntus [14]: 100% | Herbicidal effect Cyperusiria L. [15]: 100% | Herbicidal effect Echinochloa colonum [16]: 100% | Herbicidal effect Ipomoea purpurea [17]: 100% | Herbicidal effect Sesbania exaltata [19]: 100%
